In patent US11266655B2, “Methods and compositions for treating urea cycle disorders” (Camp4 Therapeutics Corporation, priority 2019, dated 2022):
Where “and” joins values, the source holds several entries; their conditions need not be identical. Equal entries are not always repeated. Structures can show the parent of a compound that is named as a salt. Where two headings read alike, the source gives them in different places.

What was measured:
OTC [1] = assay: JAK1 inhibitor dose titration in hepatocytes of donors A and B, OTC mRNA normalized to B2M; format: cell-based, human; conditions: normalized to B2M
Method: (§1) Next, two JAK1 inhibitors were tested at increasing concentrations in a dose titration assy. Hepatocytes from two different donors (A and B) were incubated with the various concentrations of upadacitinib or oclacitinib maleate and harvested for mRNA analysis. OTC and CPS1 mRNA were normalized to house keeping gene B2M gene expression.

OTC [2] = assay: JAK inhibitors at 0.3 and 3 μM in primary human hepatocytes, OTC mRNA fold change; format: cell-based; conditions: fold change vs DMSO
Method: (§2) Additional small molecules that inhibit JAK1, JAK2, JAK3, or a combination of the JAK proteins were tested in primary human hepatocytes as described in Example 2. JAK inhibitors were tested in triplicate at 0.3 μM and 3 μM. The results are shown as the fold change (mRNA FC) in the mRNA levels of OTC and CPS1 genes after treatment compared to an untreated control (DMSO) and the standard deviation (SD).

CPS1 [3] = assay: JAK1 inhibitor dose titration in hepatocytes of donors A and B, CPS1 mRNA normalized to B2M; format: cell-based, human; conditions: normalized to B2M
Method: as §1

CPS1 [4] = assay: JAK inhibitors at 0.3 and 3 μM in primary human hepatocytes, CPS1 mRNA fold change; format: cell-based; conditions: fold change vs DMSO
Method: as §2

OTC [5] = assay: OTC expression modulated by compounds, OTC/GeoMean of housekeeping genes, DMSO = 1 (Table 3A); format: cell-based, human; conditions: 10 uM final concentration
ARG1 = assay: RNA-seq of compound-treated primary human hepatocytes, ARG1 expression; format: cell-based
SLC25A15 = assay: RNA-seq of compound-treated primary human hepatocytes, SLC25A15 expression; format: cell-based; conditions: Hydrochloride
CPS1 [6] = assay: HSP90 or HSP70 inhibitors in primary human hepatocytes, CPS1 mRNA; format: cell-based; conditions: hepatocytes from Donor B, normalized to B2M
Method: (§3) Additional small molecules that inhibit HSP90 or HSP70 were tested in primary human hepatocytes as described in Example 2. HSP90 or HSP70 inhibitors were tested in triplicate at 0.3 μM and 3 μM. The results are shown as the fold change (mRNA FC) in the mRNA levels of OTC and CPS1 genes after treatment compared to an untreated control (DMSO) and the standard deviation (SD). In addition, a dose titration experiment was performed with selected HSP90 inhibitors. Hepatocytes were incubated with increasing concentrations of HSP90 inhibitors and the changes in OTC and CPS1 expression quantified as previously described.
(§4) HSP90 and HSP70 inhibitors were compared to confirm the role of HSP90 in modulating OTC and CPS1 expression. Hepatocytes from Donor B were incubated with various HSP90 inhibitors or an HSP70 inhibitor, Pifithrin-μ, and then harvested for mRNA quantification. OTC and CPS1 mRNA levels were normalized to B2M.

OTC [7] = assay: HSP90 inhibitor dose titration in hepatocytes of donors A and B, OTC mRNA normalized to B2M; format: cell-based, human; conditions: 18 hours
Method: as §3
(§5) Hepatocytes from two different donors (A and B) were incubated with the various concentrations of HSP90 inhibitors for 18 hours and harvested for mRNA analysis. OTC and CPS1 mRNA were normalized to house keeping gene B2M gene expression.

SLC25A13 = assay: RNA-seq of compound-treated primary human hepatocytes, SLC25A13 expression; format: cell-based; conditions: primary human hepatocytes, triplicate (Table 23, FIG. 15)
ASS1 = assay: RNA-seq of compound-treated primary human hepatocytes, ASS1 expression; format: cell-based
CPS1 [8] = assay: HSP90 inhibitor dose titration in hepatocytes of donors A and B, CPS1 mRNA normalized to B2M; format: cell-based, human; conditions: 18 hours
Method: as §3, §5

OTC [9] = assay: HSP90 or HSP70 inhibitors in primary human hepatocytes, OTC mRNA; format: cell-based; conditions: hepatocytes from Donor B, normalized to B2M
Method: as §3, §4

CPS1 [10] = assay: RNA-seq of compound-treated primary human hepatocytes, CPS1 expression; format: cell-based; conditions: 3 μM, primary human hepatocytes, triplicate (Table 19, FIG. 11)
NAGS = format: cell-based, human
OTC [11] = assay: RNA-seq of compound-treated primary human hepatocytes, OTC expression; format: cell-based; conditions: primary human hepatocytes, RNA-seq
urea cycle genes = assay: RNA-seq of primary human hepatocytes, compounds that modulate multiple urea cycle-related genes; format: cell-based; conditions: primary human hepatocytes, RNA-seq
Method: To identify small molecules that modulate urea cycle enzymes, primary human hepatocytes were prepared as a monoculture, and at least one small molecule compound was applied to the cells.
RNA-seq was performed to determine the effects of the compounds on the expression of urea cycle enzymes in hepatocytes. Fold change was calculated by dividing the level of expression in the cell system that had been perturbed by the level of expression in an unperturbed system. Changes in expression having a p-value ≤0.05 were considered significant.
Significance was defined as an FPKM ≥1, a log 2 (fold change) ≥0.5, and a q-value of ≤0.05 for selected gene target.

CC[C@@H]1CN(C(=O)NCC(F)(F)F)C[C@@H]1c1cnc2cnc3[nH]ccc3n12 [upadacitinib]
OTC mRNA FC, Donor A (OTC [1]; 0.1 uM): 1.36
OTC mRNA FC, Donor B (OTC [1]; 0.1 uM): 1.56
OTC mRNA FC, Donor A (OTC [1]; 0.3 uM): 1.99
OTC mRNA FC, Donor B (OTC [1]; 0.3 uM): 2.06
OTC mRNA FC, Donor A (OTC [1]; 1 uM): 3.17
OTC mRNA FC, Donor B (OTC [1]; 1 uM): 3.54
OTC mRNA FC, Donor A (OTC [1]; 3 uM): 4.81
OTC mRNA FC, Donor B (OTC [1]; 3 uM): 4.66
OTC mRNA FC, Donor A (OTC [1]; 10 uM): 6.77
OTC mRNA FC, Donor B (OTC [1]; 10 uM): 9.39
OTC mRNA FC (OTC [2]; 0.3 uM): 2.91
OTC mRNA FC (OTC [2]; 3 uM): 2.75
CPS1 mRNA FC, Donor A (CPS1 [3]; 0.1 uM): 1.26
CPS1 mRNA FC, Donor B (CPS1 [3]; 0.1 uM): 3.74
CPS1 mRNA FC, Donor A (CPS1 [3]; 0.3 uM): 1.58
CPS1 mRNA FC, Donor B (CPS1 [3]; 0.3 uM): 2.54
CPS1 mRNA FC, Donor A (CPS1 [3]; 1 uM): 2.70
CPS1 mRNA FC, Donor B (CPS1 [3]; 1 uM): 2.38
CPS1 mRNA FC, Donor A (CPS1 [3]; 3 uM): 3.15
CPS1 mRNA FC, Donor B (CPS1 [3]; 3 uM): 1.43
CPS1 mRNA FC, Donor A (CPS1 [3]; 10 uM): 4.25
CPS1 mRNA FC, Donor B (CPS1 [3]; 10 uM): 1.21
CPS1 mRNA FC (CPS1 [4]; 0.3 uM): 2.02
CPS1 mRNA FC (CPS1 [4]; 3 uM): 1.39

CSCC[C@H](N)C(=O)N[C@@]1(C(=O)O)CS(=O)(=O)[C@H]2[C@H](C(=O)O)[C@H]21 [pomaglumetad methionil]
Max Value (OTC/GeoMean of HKs; DMSO = 1) (OTC [5]): 1.49

C=CCNc1c(O)cc2c(O)c1C[C@@H](C)C[C@H](OC)[C@H](O)[C@@H](C)/C=C(\C)[C@H](OC(N)=O)[C@@H](OC)/C=C\C=C(/C)C(=O)N2 [Retaspimycin Hydrochloride]
Relative ARGI level vs Untreated (±Standard Deviation) (ARG1): 1.31 ± 0.12
Relative SLC25A15 level vs Untreated (±Standard Deviation) (SLC25A15): 1.35 ± 0.27 and 1.31 ± 0.08 and 1.54 ± 0.17 and 1.45 ± 0.01 and 1.60 ± 0.25 and 1.67 ± 0.17 and 1.93 ± 0.13 and 1.77 ± 0.11
CPS1 Expression mRNA FC (CPS1 [6]; 0.3 uM): 1.23
CPS1 Expression mRNA FC (CPS1 [6]; 3 uM): 2.24
OTC mRNA FC, Donor A (OTC [7]; 0.01 uM): 1.40
OTC mRNA FC, Donor B (OTC [7]; 0.01 uM): 1.31
OTC mRNA FC, Donor A (OTC [7]; 0.03 uM): 5.91
OTC mRNA FC, Donor B (OTC [7]; 0.03 uM): 1.78
OTC mRNA FC, Donor A (OTC [7]; 0.1 uM): 9.07
OTC mRNA FC, Donor B (OTC [7]; 0.1 uM): 5.18
Relative SLC25A13 level vs Untreated (±Standard Deviation) (SLC25A13; 0.3 μM): 1.35 ± 0.27
Relative SLC25A13 level vs Untreated (±Standard Deviation) (SLC25A13; 1 μM): 1.31 ± 0.08
Relative SLC25A13 level vs Untreated (±Standard Deviation) (SLC25A13; 3 μM): 1.54 ± 0.17
Relative SLC25A13 level vs Untreated (±Standard Deviation) (SLC25A13; 10 μM): 1.45 ± 0.01
Relative ASS1 level vs Untreated (±Standard Deviation) (ASS1): 1.38 ± 0.13
CPS1 mRNA FC, Donor A (CPS1 [8]; 0.01 uM): 1.54
CPS1 mRNA FC, Donor B (CPS1 [8]; 0.01 uM): 1.29
CPS1 mRNA FC, Donor A (CPS1 [8]; 0.03 uM): 3.17
CPS1 mRNA FC, Donor B (CPS1 [8]; 0.03 uM): 1.67
CPS1 mRNA FC, Donor A (CPS1 [8]; 0.1 uM): 3.76
CPS1 mRNA FC, Donor B (CPS1 [8]; 0.1 uM): 2.57
OTC Expression mRNA FC (OTC [9]; 0.3 uM): 2.98
OTC Expression mRNA FC (OTC [9]; 3 uM): 2.53

CO[C@H]1/C=C\C=C(/C)C(=O)NC2=CC(=O)C(NCCN(C)C)=C(C[C@@H](C)C[C@H](OC)[C@H](O)[C@@H](C)/C=C(\C)[C@@H]1OC(N)=O)C2=O [Alvespimycin hydrochloride]
CPS1 Expression mRNA FC (CPS1 [6]; 0.3 uM): 1.41
CPS1 Expression mRNA FC (CPS1 [6]; 3 uM): 1.54
OTC Expression mRNA FC (OTC [9]; 0.3 uM): 1.94
OTC Expression mRNA FC (OTC [9]; 3 uM): 1.03

CC1(C)CC(=O)c2c(C(F)(F)F)nn(-c3ccc(C(N)=O)c(N[C@H]4CC[C@H](OC(=O)CN)CC4)c3)c2C1 [PF-04929113]
Relative CPS1 level vs Untreated (±Standard Deviation) (CPS1 [10]): 1.38 ± 0.13
CPS1 Expression mRNA FC (CPS1 [6]; 0.3 uM): 1.62
CPS1 Expression mRNA FC (CPS1 [6]; 3 uM): 2.09
OTC Expression mRNA FC (OTC [9]; 0.3 uM): 1.77
OTC Expression mRNA FC (OTC [9]; 3 uM): 4.28

COc1cc2c(cc1OC)CN(C(=O)/C=C/c1c(-c3ccccc3)n(C)c3ncccc13)CC2 [SIS3]
Fold change (Log 2) vs untreated, NAGS expression (NAGS): 0.64 Log 2
Max Value (OTC/GeoMean of HKs; DMSO = 1) (OTC [5]): 1.46

NS(=O)(=O)C#Cc1ccccc1 [Pifithrin-μ]
Fold change (Log 2) vs untreated, ARG1 expression (ARG1; primary human hepatocytes, RNA-seq (Table 7)): 1.87 Log 2
Fold change (Log 2) vs untreated, NAGS expression (NAGS; primary human hepatocytes, RNA-seq (Table 6)): 1.18 Log 2
OTC expression, Fold change (Log 2) vs untreated (OTC [11]): 0.79 Log 2
CPS1 Expression mRNA FC (CPS1 [6]; 0.3 uM): 0.98
CPS1 Expression mRNA FC (CPS1 [6]; 3 uM): 1.05
number of urea cycle genes whose expression was significantly up-regulated (urea cycle genes): three
Up-regulated Genes (urea cycle genes; urea cycle-related genes significantly increased (Table 10)): OTC, NAGS, ARG1
OTC Expression mRNA FC (OTC [9]; 0.3 uM): 1.20
OTC Expression mRNA FC (OTC [9]; 3 uM): 1.29

Cc1cc(Nc2cc(CN3CCOCC3)c3nc(C)c(Cc4ccc(Cl)cc4F)n3n2)n[nH]1 [LY2784544]
Max Value (OTC/GeoMean of HKs; DMSO = 1) (OTC [5]): 2.78
